{
  "source": "patent US6004790A",
  "about": "“Cyclomaltodextrin glucanotransferase variants” (priority 1995, dated 1999)",
  "test_in_all_cases": "Kinetic studies of β-cyclodextrin forming activity on Paselli SA2 with and without β-cyclodextrin (product inhibition)",
  "assay_type_in_all_cases": "biochemical",
  "key": {"[1]": {"target": "T1, Bacillus circulans Strain 251 CGTase (cyclomaltodextrin glucanotransferase), wild type, SEQ ID NO: 70 (Niallia circulans, UniProt P43379)", "T1 construct": "a high extracellular production of wild-type enzyme and CGTase variants was obtained reproducibly; made in house; host or cells: Bacillus subtilis Strain DB104A (plasmid pDP66K)", "T1 sequence (P43379 28-713)": "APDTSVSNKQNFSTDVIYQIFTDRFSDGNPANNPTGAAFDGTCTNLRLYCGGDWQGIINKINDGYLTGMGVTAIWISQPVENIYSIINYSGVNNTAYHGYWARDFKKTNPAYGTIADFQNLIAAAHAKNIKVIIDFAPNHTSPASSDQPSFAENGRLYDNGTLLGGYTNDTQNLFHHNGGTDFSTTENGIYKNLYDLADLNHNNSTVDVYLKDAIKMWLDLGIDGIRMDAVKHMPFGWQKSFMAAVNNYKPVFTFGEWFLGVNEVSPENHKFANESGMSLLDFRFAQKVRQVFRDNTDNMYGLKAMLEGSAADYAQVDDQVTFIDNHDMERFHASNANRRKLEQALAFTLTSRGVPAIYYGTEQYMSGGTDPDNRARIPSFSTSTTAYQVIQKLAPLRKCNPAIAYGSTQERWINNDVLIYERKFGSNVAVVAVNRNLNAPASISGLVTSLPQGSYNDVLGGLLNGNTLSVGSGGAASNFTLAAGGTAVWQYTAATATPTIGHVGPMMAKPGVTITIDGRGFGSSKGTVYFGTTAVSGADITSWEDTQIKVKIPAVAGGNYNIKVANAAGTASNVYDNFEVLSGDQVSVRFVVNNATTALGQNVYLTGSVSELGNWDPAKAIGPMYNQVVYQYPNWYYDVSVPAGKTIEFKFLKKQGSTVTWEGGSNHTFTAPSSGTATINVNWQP", "conditions": "inhibition by β-cyclodextrin (0.1 or 0.2 mM), substrate 0-5% Paselli SA2, 50° C., Hill equation fit", "protocol": "(§1) β-cyclodextrin Forming Activity: β-cyclodextrin forming activity was determined using 5% Paselli™ SA2 (i.e. partially hydrolysed potato starch with an average degree of polymerization of 50, available from AVEBE, Foxhol, The Netherlands) as substrate and after incubation for 3 minutes at 50° C. 0.1-0.1 units of activity were used. The β-cyclodextrin formed was determined based on its ability to form a stable colorless inclusion complex with phenolphthalein. One unit of activity is defined as the amount of enzyme able to form 1 μmol of β-cyclodextrin per minute.\n(§2) Kinetic Studies: Kinetic studies on Paselli™ SA2 (AVEBE, Foxhol, The Netherlands) were performed by determination of the β-cyclodextrin forming activity of the enzyme on Paselli™ concentrations ranging from 0 to 5%, with and without addition of 0.1 or 0.2 mM of β-cyclodextrin. In these experiments approx. 0.6 μg/ml (0.15-0.18 units) of enzyme was used.\n(§3) The data collected from these kinetic and binding studies were fitted using the Hill equation, yielding Ymax and K50 values for the binding studies, and Vmax and K50 values for the kinetic studies. Ki values were calculated as follows. [formula] Results"}, "[2]": {"target": "T2, Bacillus circulans Strain 251 CGTase variant Y633A (Niallia circulans, UniProt P43379, Y660A)", "T2 construct": "a high extracellular production of wild-type enzyme and CGTase variants was obtained reproducibly; made in house; host or cells: Bacillus subtilis Strain DB104A (plasmid pDP66K)", "T2 sequence (P43379 28-713 Y660A)": "as the sequence (P43379 28-713) above, with Y633A counted along it", "protocol": "as §1, §2, §3"}, "[3]": {"target": "T3, Bacillus circulans Strain 251 CGTase variant W616A/W662A (Niallia circulans, UniProt P43379, W643A/W689A)", "T3 construct": "a high extracellular production of wild-type enzyme and CGTase variants was obtained reproducibly; made in house; host or cells: Bacillus subtilis Strain DB104A (plasmid pDP66K)", "T3 sequence (P43379 28-713 W643A/W689A)": "as the sequence (P43379 28-713) above, with W616A, W662A counted along it", "protocol": "as §1, §2, §3"}},
  "data": [
    {"smiles": "OC[C@H]1O[C@@H]2O[C@H]3[C@H](O)[C@@H](O)[C@@H](O[C@H]4[C@H](O)[C@@H](O)[C@@H](O[C@H]5[C@H](O)[C@@H](O)[C@@H](O[C@H]6[C@H](O)[C@@H](O)[C@@H](O[C@H]7[C@H](O)[C@@H](O)[C@@H](O[C@H]8[C@H](O)[C@@H](O)[C@@H](O[C@H]1[C@H](O)[C@H]2O)O[C@@H]8CO)O[C@@H]7CO)O[C@@H]6CO)O[C@@H]5CO)O[C@@H]4CO)O[C@@H]3CO", "note": "[β-cyclodextrin]", "values": [
      {"measurement": "Ki", "setting": "[1]", "value": 380, "unit": "µM"},
      {"measurement": "Ki", "setting": "[2]", "value": 210, "unit": "µM"},
      {"measurement": "Ki", "setting": "[3]", "value": 1110, "unit": "µM"}
    ]}
  ]
}
